Data published in patent US11917960B2, “Methods to improve genetic transformation of sorghum” (Commonwealth Scientific and Industrial Research Organisation, priority 2016, dated 2024).
Marks after values point to notes of the source that are not given here.

How the values were obtained:
Type in all cases: cell-based, Sorghum bicolor L
[1] = system: DEC tissues/somatic embryos; assay: Sensitivity of DEC tissues/somatic embryos to Geneticin; details: for Green DEC tissue survival (%): CIM + 1 mg/l LA, 6 weeks culture
Protocol: The experiment was carried out using 6 weeks-old uniform, healthy green-coloured DEC tissues about 5 mm in size and which contained some somatic embryos, produced after culturing on CIM containing 1 mg/l LA. The Geneticin levels used were 0, 15, 25, 35 and 45 mg/L, respectively. Three replicates each of 15 green DEC tissue pieces per plate were used for each concentration of Geneticin tested. The tissues were cultured for 6 weeks, being subcultured every two weeks onto the same medium, including the same Geneticin concentrations.
After 6 weeks of culture, the number of green DEC tissues that had survived was counted.
DEC tissues (about 5 mm) began to display geneticin stress symptoms on selective callus induction media (CIM with geneticin) within 3 weeks of culture. […] Very few calli (2-6) survived with dead patches. On this basis, geneticin at a final concentration of 25 mg/i was used in the callus induction media for 3 cycles (2 weeks each) and then increased to 30 mg/i for one cycle in shoot induction media (Table 6). Different concentrations of geneticin in CIM and SIM was deemed optimal in preventing shoot regeneration from non-transformed callus.

[2] = system: DEC tissue of sorghum; assay: Regeneration frequency and number of shoots per DEC tissue on SIM and SRM; details: for Number of shoots/callus / Regeneration frequency (%): LA in SIM and SRM, mean ± SD
Protocol: After six weeks on the CIM, some uniform green-coloured DEC tissue of about 4-7 mm diameter were transferred on to shoot induction medium (SIM) and cultured for another 2-3 weeks in order to begin organogenesis. Tissues which had induced shoot buds were then transferred to shoot regeneration medium (SRM) and again cultured for 2-3 weeks. Regenerability of DEC tissue of different ages (2-6 months from initiation) was also tested on SRM medium comprising different concentrations of BAP (0.5-1.0 mg/l) and TDZ (0.5-1.0 mg/l). The number of shoots were counted and the regeneration frequency (i.e. the number of shoots/DEC tissue) was calculated after 3 weeks culture on SRM (total of approximately 5 weeks culture inclusive of culture on SIM and SRM). Individual shoots approximately 2-3 cm in length were transferred to shoot out growth (SOG) medium and cultured for another 2-3 weeks. Well-developed shoots (4-5 cm in length), were carefully separated from the cluster and transferred to root induction medium (RIM) and cultured for 3-4 weeks. For shoot induction to complete plant regeneration, 50-60 μmol s^−1 m^−2 (16 h/day) fluorescent light was used in the tissue culture room at 24±2° C. Shoots (about 8 cm in length) with numerous (often 15-20) healthy looking roots were transferred to soil and grown to maturity in a PC2 glasshouse at […]. The optimized culture medium composition for the different stages of plant transformation from callus induction to plant regeneration from green tissue induced from immature embryos is presented in Table 1.
Uniform ready-to-use high quality green DEC tissues (5 mm) each with nodular structures induced on CIM medium with or without added LA were transferred to shoot induction medium (SIM) with and without LA and cultured for another 2-3 weeks. Tissues with induced shoot buds were then transferred to shoot regeneration medium (SRM) with or without added LA and again cultured for 2 weeks. Regenerability of green tissues of different ages (2-6 months from initiation) was tested on SRM medium containing different concentrations of BAP (0.5-1.0 mg/l) and TDZ (0.5-1.0 mg/l). Tissues including the shoot buds were again cultured on hormone free medium (SOG) with or without LA. The number of shoots was counted after 2 weeks of culture on SRM and the regeneration frequency (number of shoots/DEC tissue) calculated.

[3] = system: immature embryos (IEs); assay: DEC tissue induction from immature embryos on CIM with or without LA; details: for Green tissue induction frequency: CIM + 1 mg/l LA, 6 weeks culture, mean ± SD, frequency calculated as a percentage, in %
Protocol: Plants of the grain sorghum of the inbred cultivar TX-430 (Miller 1984) were grown in a plant growth chamber (Conviron, PGC-20 flex) at 28±1° C. “day” temperature and 20±1° C. “night” temperature, with a. 16 hr photoperiod at a light intensity during the “day” of 900-1000 LUX. Panicles were covered with white translucent paper bags before flowering. Immature embryos were harvested from panicles 12-15 days after anthesis. Panicles were washed several times with water and developing seeds that were uniform in size were isolated and surface-sterilized using 20% commercial bleach mixed with 0.1% Tween-20 for 15-20 min. They were then washed with sterile distilled water 3 times each for 20 min, and blotted dry in a laminar flow hood. Immature embryos (IEs) ranging from 1.4 to 2.5 mm in length were aseptically isolated in the laminar flow hood and used as the starting tissue for preparation of green regenerative tissue.
The isolated IEs ranging from 1.4 to 2.5 mm in length were placed onto callus induction media (CIM) of various compositions with their scutellum facing upward. CIM modified to improve callus quality and induction frequency from immature embryos, as well as callus regeneration media, included α-Lipoic acid (1 to 5 mg/1), Melatonin (5 to 10 mg/l) and 2-Aminoidan-2-phosphonic acid HCl (1 to 2 mg/l) unless otherwise stated. For the development of green tissue, immature embryos were incubated under fluorescent light of approximately 45-50 μmol s^−1 m^−2 (16 h/day) in a tissue culture room at 24±2° C. After three days of culture, the root and shoot poles of the immature embryos were aseptically separated and re-inoculated on to the same media (CIM) and maintained under the same conditions as described above. They were subcultured every two weeks for 6 weeks by chopping the callus into 2-3 mm portions, re-inoculating on to the same media (CIM) and maintaining under the same conditions described above, after which time the tissue cultures were evaluated for callus quality, callus induction efficiency and transformation efficiency. Callus induction frequency was calculated as the number of calli obtained (˜5 mm) over total number of immature embryos inoculated, as a percentage.
Sets of IEs ranging from 1.4 to 2.5 mm in length, each set isolated from one panicle, were aseptically isolated and cultured on CIM medium as described in Example 1. Some sets were cultured with the addition of α-Lipoic acid (LA, 1 mg/I or 5 mg/), others without, in order to determine the effect of this agent.
After 6 weeks of culture including subculture every two weeks onto the same medium, DEC tissue induction frequency and quality were evaluated. […]

[4] = system: immature embryos (IEs); assay: DEC tissue yield on CIM with or without LA; details: for DEC yield in number ~5 mm each: CIM + 1 mg/l LA, 45 IEs
From the text: After 4 to 12 weeks of culture, the number of DEC tissues obtained were counted. The number of DEC tissue pieces (˜5 mm) obtained at 12 weeks on CIM with LA was almost double when compared to using CIM without LA. Furthermore, the quality of the DEC tissues obtained on CIM with LA was improved compared to using the medium without LA.

[5] = after 8 weeks on CIM with G25 and 35 mg/l

CN[C@@H]1[C@@H](O)[C@@H](O[C@@H]2[C@@H](O)[C@H](O[C@H]3O[C@H]([C@@H](C)O)[C@@H](O)[C@H](O)[C@H]3N)[C@@H](N)C[C@H]2N)OC[C@]1(C)O [Geneticin]
Green DEC tissue survival (%) ([1]; Geneticin 15 mg/l): 80 ± 1.0%
Green DEC tissue survival (%) ([1]; Geneticin 25 mg/l): 4 ± 2.6%
Green DEC tissue survival (%) ([1]; Geneticin 35 mg/l): 2 ± 0.5%
Green DEC tissue survival (%) ([1]; Geneticin 45 mg/l): 0%
Appearance of calli [1, 5]: most of the calli turned dark brown in colour with no signs of survival
Number of calli survived with dead patches [1, 5]: 2-6
Time until DEC tissues began to display geneticin stress symptoms ([1]; selective callus induction media (CIM with geneticin)): ≤ 3 weeks

O=C(O)CCCCC1CCSS1 (stereo not drawn) [LA, α-Lipoic acid]
Number of shoots/callus ([2]; DEC tissue age 2 months): 40 ± 4.5^b
Regeneration frequency (%) ([2]; DEC tissue age 2 months): 97.6 ± 2.5%
Number of shoots/callus ([2]; DEC tissue age 4 months): 40 ± 1.5^d
Regeneration frequency (%) ([2]; DEC tissue age 4 months): 97 ± 2.6 %
Number of shoots/callus ([2]; DEC tissue age 6 months): 33 ± 2.5^f
Regeneration frequency (%) ([2]; DEC tissue age 6 months): 94.3 ± 2.0 %
Regeneration frequency and number of shoots/DEC tissue for different ages of DEC tissue ([2]; LA included in both SIM and SRM, versus without LA): did not decline as much
DEC tissue induction at higher concentration of LA compared to 1 mg/ml ([3]; LA 5 mg/l in CIM): no significant further improvement
Green tissue induction frequency ([3]; immature embryo size 1.5-2 mm): 79.0 ± 6.5
Green tissue induction frequency ([3]; immature embryo size >2 mm): 59.0 ± 5.5
DEC tissue induction frequency compared to CIM without LA ([3]; small immature embryos (1.5-2 mm), significant at p<0.01): greater
Number of DEC tissue pieces (~5 mm) compared to CIM without LA ([4]; 12 weeks on CIM with LA): almost double
DEC yield in number ~5 mm each ([4]; culturing time 4 weeks): 36
DEC yield in number ~5 mm each ([4]; culturing time 6 weeks): 90
DEC yield in number ~5 mm each ([4]; culturing time 8 weeks): 120
DEC yield in number ~5 mm each ([4]; culturing time 10 weeks): 218
DEC yield in number ~5 mm each ([4]; culturing time 12 weeks): 825
